Laboratory results from patent publication US20120121591A1 (priority 2009, published 2012).

Key:
Format in all cases: cell-based
hKv1.3 = hKv1.3 (Homo sapiens, UniProt P22001); experiment: cell-based; conditions: Kv1.3 (IWQ) IC50 (nM, Avg)
[1] = test system: IL-2 secretion from T cells in human whole blood; conditions: read-out: WB (IL-2) IC50 (nM, Avg)
[2] = test system: IFN-g secretion from T cells in human whole blood; conditions: read-out: WB (IFNg) IC50 (nM, Avg)

hKv1.3, sequence (P22001 whole entry): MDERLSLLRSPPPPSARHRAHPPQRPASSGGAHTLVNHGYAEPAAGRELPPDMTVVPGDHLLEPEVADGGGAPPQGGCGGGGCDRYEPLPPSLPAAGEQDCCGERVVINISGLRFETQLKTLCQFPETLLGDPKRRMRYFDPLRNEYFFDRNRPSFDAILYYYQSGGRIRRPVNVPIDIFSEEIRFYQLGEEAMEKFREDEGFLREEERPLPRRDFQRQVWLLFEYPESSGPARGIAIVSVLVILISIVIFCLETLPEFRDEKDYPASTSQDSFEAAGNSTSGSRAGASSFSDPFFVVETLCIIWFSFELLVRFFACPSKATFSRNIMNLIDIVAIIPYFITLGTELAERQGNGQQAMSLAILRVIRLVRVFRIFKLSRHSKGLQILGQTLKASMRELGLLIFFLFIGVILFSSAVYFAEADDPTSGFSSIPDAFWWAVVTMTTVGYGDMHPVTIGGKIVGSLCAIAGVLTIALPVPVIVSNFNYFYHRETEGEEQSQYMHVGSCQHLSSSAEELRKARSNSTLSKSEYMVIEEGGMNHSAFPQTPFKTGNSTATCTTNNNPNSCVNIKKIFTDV

With `CC[C@H](C)[C@@H]1NC(=O)[C@@H](NC(=O)[C@H](CO)NC(=O)[C@@H](N)CCCNC(=N)N)CSSC[C@@H](C(N)=O)NC(=O)[C@H]([C@@H](C)O)NC(=O)CNC(=O)[C@@H]2CSSC[C@@H]3NC(=O)[C@H](CCCCN)NC(=O)[C@H](Cc4ccccc4)NC(=O)[C@H](C)NC(=O)[C@H]([C@@H](C)O)NC(=O)[C@H](CSSC[C@H](NC(=O)[C@H](Cc4ccc(O)cc4)NC(=O)[C@H](CO)NC(=O)[C@H](CC(C)C)NC(=O)[C@H](CCCNC(=N)N)NC(=O)[C@H](Cc4ccc(O)cc4)NC(=O)[C@H](CCCCN)NC(=O)[C@H](CCSC)NC(=O)[C@H](CO)NC(=O)[C@H](Cc4c[nH]cn4)NC(=O)[C@H](CCCCN)NC3=O)C(=O)N[C@@H](CCCCN)C(=O)N[C@@H](CCCCN)C(=O)N[C@@H]([C@@H](C)O)C(=O)N2)NC(=O)[C@H](CCCNC(=N)N)NC(=O)[C@H](CO)NC(=O)[C@H](CCCCN)NC(=O)[C@@H]2CCCN2C(=O)[C@H]([C@@H](C)CC)NC(=O)[C@H]([C@@H](C)O)NC(=O)[C@H](CC(=O)O)NC1=O` [[Lys16,29;Tyr27]ShK-amide] the IC50 (hKv1.3) was 0.042 nM, the IC50 [1] was 0.738 nM and the IC50 [2] was 1.17 nM.

`CC[C@H](C)[C@@H]1NC(=O)[C@@H](NC(=O)[C@H](CO)NC(=O)[C@@H](N)CCCNC(=N)N)CSSC[C@@H](C(N)=O)NC(=O)[C@H]([C@@H](C)O)NC(=O)CNC(=O)[C@@H]2CSSC[C@@H]3NC(=O)[C@H](CCCCN)NC(=O)[C@H](Cc4ccccc4)NC(=O)[C@H](C)NC(=O)[C@H]([C@@H](C)O)NC(=O)[C@H](CSSC[C@H](NC(=O)[C@H](Cc4ccc5ccccc5c4)NC(=O)[C@H](CO)NC(=O)[C@H](CC(C)C)NC(=O)[C@H](CCCNC(=N)N)NC(=O)[C@H](Cc4ccc(O)cc4)NC(=O)[C@H](CCCCN)NC(=O)[C@H](CCSC)NC(=O)[C@H](CO)NC(=O)[C@H](Cc4c[nH]cn4)NC(=O)[C@H](CCCCN)NC3=O)C(=O)N[C@@H](CCCCN)C(=O)N[C@@H](CCCCN)C(=O)N[C@@H]([C@@H](C)O)C(=O)N2)NC(=O)[C@H](CCCNC(=N)N)NC(=O)[C@H](CO)NC(=O)[C@H](CCCCN)NC(=O)[C@@H]2CCCN2C(=O)[C@H]([C@@H](C)CC)NC(=O)[C@H]([C@@H](C)O)NC(=O)[C@H](CC(=O)O)NC1=O` [[Lys16, 29;2-Nal27]ShK-amide] showed an IC50 (hKv1.3) of 10.1 nM, an IC50 [1] of 13.1 nM and an IC50 [2] of 24.7 nM.

For `CCCC[C@@H]1NC(=O)[C@H](CO)NC(=O)[C@H](Cc2c[nH]cn2)NC(=O)[C@H](CCCCN)NC(=O)[C@@H]2CSSC[C@@H]3NC(=O)[C@H]([C@@H](C)O)NC(=O)[C@H](C)NC(=O)[C@H](CCCCN)NC(=O)[C@H](CSSC[C@H](NC(=O)[C@H](CCCNC(=N)N)NC(=O)[C@H](CO)NC(=O)[C@H](CCCCN)NC(=O)[C@@H]4CCCN4C(=O)[C@H]([C@@H](C)CC)NC(=O)[C@H]([C@@H](C)O)NC(=O)[C@H](CC(=O)O)NC(=O)[C@H]([C@@H](C)CC)NC(=O)[C@@H](NC(=O)[C@H](CO)NC(=O)[C@@H](N)CCCNC(=N)N)CSSC[C@@H](C(N)=O)NC(=O)[C@H]([C@@H](C)O)NC(=O)CNC3=O)C(=O)N[C@@H]([C@@H](C)O)C(=O)N[C@@H](C)C(=O)N[C@@H](Cc3ccccc3)C(=O)N[C@@H](CCCCN)C(=O)N2)NC(=O)[C@H](Cc2ccccc2)NC(=O)[C@H](CO)NC(=O)[C@H](CC(C)C)NC(=O)[C@H](CCCNC(=N)N)NC(=O)[C@H](Cc2ccc(O)cc2)NC(=O)[C@H](CCCCN)NC1=O` [[Lys16, 29; Ala30,Nle21]ShK-amide], the IC50 (hKv1.3) was 0.057 nM, the IC50 [1] was 0.791 nM and the IC50 [2] was 1.7 nM.

In the case of `CC[C@H](C)[C@@H]1NC(=O)[C@@H](NC(=O)[C@H](CO)NC(=O)[C@@H](N)CCCNC(=N)N)CSSC[C@@H](C(N)=O)NC(=O)[C@H]([C@@H](C)O)NC(=O)CNC(=O)[C@@H]2CSSC[C@@H]3NC(=O)[C@H](CCCCN)NC(=O)[C@H](Cc4ccccc4)NC(=O)[C@H](C)NC(=O)[C@H]([C@@H](C)O)NC(=O)[C@H](CSSC[C@H](NC(=O)[C@H](Cc4ccccc4)NC(=O)[C@H](CO)NC(=O)[C@H](CC(C)C)NC(=O)[C@H](CCCNC(=N)N)NC(=O)[C@H](Cc4ccc(O)cc4)NC(=O)[C@H](CCCCN)NC(=O)[C@H](CCSC)NC(=O)[C@H](CO)NC(=O)[C@H](Cc4c[nH]cn4)NC(=O)[C@H](CCCCN)NC3=O)C(=O)N[C@@H](CCCCN)C(=O)N[C@@H](C)C(=O)N[C@@H]([C@@H](C)O)C(=O)N2)NC(=O)[C@H](CCCNC(=N)N)NC(=O)[C@H](CO)NC(=O)[C@H](CCCCN)NC(=O)[C@@H]2CCCN2C(=O)[C@H]([C@@H](C)CC)NC(=O)[C@H]([C@@H](C)O)NC(=O)[C@H](CC(=O)O)NC1=O` [[Lys16, 29;A1a30]ShK-amide], the IC50 (hKv1.3) is reported as 0.197 nM, the IC50 [1] is reported as 0.186 nM and the IC50 [2] is reported as 0.289 nM.

`CC[C@H](C)[C@@H]1NC(=O)[C@@H](NC(=O)[C@H](CO)NC(=O)[C@@H](N)CCCNC(=N)N)CSSC[C@@H](C(N)=O)NC(=O)[C@H]([C@@H](C)O)NC(=O)CNC(=O)[C@@H]2CSSC[C@@H]3NC(=O)[C@H](CCCCN)NC(=O)[C@H](Cc4ccccc4)NC(=O)[C@H](C)NC(=O)[C@H]([C@@H](C)O)NC(=O)[C@H](CSSC[C@H](NC(=O)[C@H](Cc4ccccc4)NC(=O)[C@H](CO)NC(=O)[C@H](CC(C)C)NC(=O)[C@H](CCCNC(=N)N)NC(=O)[C@H](Cc4ccc(O)cc4)NC(=O)[C@H](CCCCN)NC(=O)[C@H](CCSC)NC(=O)[C@H](CO)NC(=O)[C@H](Cc4c[nH]cn4)NC(=O)[C@H](CCCNC(=N)N)NC3=O)C(=O)N[C@@H](CCCCN)C(=O)N[C@@H](CCCNC(=N)N)C(=O)N[C@@H]([C@@H](C)O)C(=O)N2)NC(=O)[C@H](CCCNC(=N)N)NC(=O)[C@H](CO)NC(=O)[C@H](CCCCN)NC(=O)[C@@H]2CCCN2C(=O)[C@H]([C@@H](C)CC)NC(=O)[C@H]([C@@H](C)O)NC(=O)[C@H](CC(=O)O)NC1=O` [[Lys16, 29;Arg18,30]ShK-amide] was tested, and the IC50 (hKv1.3) was 0.401 nM, the IC50 [1] was 0.26 nM and the IC50 [2] was 0.242 nM.

Compound `CC[C@H](C)[C@@H]1NC(=O)[C@@H](NC(=O)[C@H](CO)NC(=O)[C@@H](N)CCCNC(=N)N)CSSC[C@@H](C(N)=O)NC(=O)[C@H]([C@@H](C)O)NC(=O)CNC(=O)[C@@H]2CSSC[C@@H]3NC(=O)[C@H](CCCCN)NC(=O)[C@H](Cc4ccccc4)NC(=O)[C@H](C)NC(=O)[C@H]([C@@H](C)O)NC(=O)[C@H](CSSC[C@H](NC(=O)[C@H](Cc4ccccc4)NC(=O)[C@H](Cc4ccccc4)NC(=O)[C@H](CC(C)C)NC(=O)[C@H](CCCNC(=N)N)NC(=O)[C@H](Cc4ccc(O)cc4)NC(=O)[C@H](CCCCN)NC(=O)[C@H](CCSC)NC(=O)[C@H](CO)NC(=O)[C@H](Cc4c[nH]cn4)NC(=O)[C@H](CCCCN)NC3=O)C(=O)N[C@@H](CCCCN)C(=O)N[C@@H](CCCCN)C(=O)N[C@@H]([C@@H](C)O)C(=O)N2)NC(=O)[C@H](CCCNC(=N)N)NC(=O)[C@H](CO)NC(=O)[C@H](CCCCN)NC(=O)[C@@H]2CCCN2C(=O)[C@H]([C@@H](C)CC)NC(=O)[C@H]([C@@H](C)O)NC(=O)[C@H](CC(=O)O)NC1=O` [[Lys16, 29;Phe26]ShK-amide] has an IC50 (hKv1.3) of 0.542 nM, an IC50 [1] of 1.42 nM and an IC50 [2] of 1.36 nM.
